Measurements taken from patent publication US10729820B2, “Methods and processes for application of drug delivery polymeric coatings” (Ariste Medical, LLC, priority 2014, dated 2020).
Counter-ions that a name gives are not always drawn. Like-named read-outs stand apart in the source and are kept apart here.

Key:
[1] = format: physicochemical; settings: 0.04 mg/cm^2
Experimental: Mesh was cut into three pieces, each approximate 4 cm^2. Each piece was weighed and it was made sure each piece was 50 mg as the actual area was, ca, 50.0 mg/(10.7 mg/cm^2)=4.7 cm^2. Thiolene formula (60 mg) (thiolene formula contains 67.22 wt % Pentaerythritol tetrakis(3-mercaptopropionate), 32.73 wt % […] Isocyanurate, and 0.05 wt % Hydroquinone:tertbutyl cathetol (1:1 mixture by moles), density is, ca, 1.2 g/mL) was dissolved in acetone aiming for the concentration of 100 mg/mL. […] Made three specimens as shown Table 1. The solutions were transferred onto PP mesh using an automatic pipette while the meshes were held by a plastic clamp. […] The thiolene formula loading was set to 2.5 mg/cm^2 in this experiment. […] HPLC runs of each specimen extract from methanol were performed under the conditions below: • Channel A: 35 mM sodium phosphate monobasic, 1 vol % triethylamine, final pH=7.5 with phosphoric acid • Channel B: acetonitrile • Column temperature=30° C. • Column type: 3×150 mm with 3.5 μm phenyl phase packing • Measurement: absorbance at 280 nm • Solvent flow rate: 1 mL/min • Solvent profile: 0-10 minutes 0-50 vol % Channel B; 10-20 minutes 50 vol % Channel B; 20-25 minutes 50-0 vol % Channel B. The concentration of minocycline hydrochloride and rifampin in specimen 2 after curing were determined using direct proportions of peak area integration of specimen 3. • a. […]

[2] = format: physicochemical; settings: 0.04 mg/cm^2; remark: listed apart in the source
Experimental: Three pieces, each approximate 4 cm^2, of polypropylene (PP) mesh (density d=107 g/m^2) were cut and weighed to make sure that each piece has same weight. The weight was 42.7 mg for each piece as the actual area was, ca, 42.7 mg/(10.7 mg/cm^2)=4 cm^2. Polyethylene glycol dimethacrylate (PEG DM) (60 mg) was weighed and dissolve the in acetone making the concentration as 100 mg/mL. PTPO (4.5 mg) was weighed and dissolve in acetone making the concentration as 10 mg/mL. 5 μL of PTPO solution (containing 50 ug PTPO) in step and 100 μL of PEG DM solution (containing 10 mg of PEG DM formula, described above) were mixed in a 1.5 mL centrifuge tube so that the PTPO to PEG DM weight ratio was 0.5%. Took preweighed 157 μg of minocycline and 157 μg of rifampin, so that the drug loading was about 0.04 mg/cm^2 in this experiment for each drug. The solutions were transferred onto PP mesh using an automatic pipette while the meshes were held by a plastic clamp. Specimen 4 and 5 were subjected to curing while specimen 6 was chosen as a reference. The thiolene formula loading was 2.5 mg/cm^2 in this experiment. […]
Using direct proportions of peak integration of specimen 6, the concentration of minocycline hydrochloride and rifampin in specimen 5 after curing was determined. […] The antibiotics remaining after curing were calculated as: {(Peak integration of specimen 5)/(peak integration of specimen 6)}×100%

[3] = format: physicochemical; settings: 0.4 mg/cm^2
Experimental: Three 35.3 mg, 3.24 cm^2 pieces of polypropylene mesh were cut. About 80 mg thiolene formula (67.22 wt % pentaerythritol tetrakis(3-mercaptopropionate), 32.73 wt % triallyl isocyanurate, and 0.05 wt % hydroquinone:tertbutyl cathetol (1:1 mixture by moles), density is, ca, 1.2 g/mL) was weighed and dissolve the formula in acetone aiming for the concentration of 200 mg/mL. Weighed about 2 mg PTPO and dissolved it in acetone aiming for the concentration of 10 mg/mL. Took 8.1 μL of solution of PTPO (which contained 81 ug PTPO) and 81 μL of the thiolene solution (which contained 16.2 mg of thiolene formula) and mixed them in a 1.5 mL centrifuge tube, so that the PTPO to monomer weight ratio was 0.005. The thiolene formula to PP mesh ratio was 5 mg/cm^2. Drugs were dissolved in methanol and drug/methanol solutions were mixed with monomer/acetone solutions such that solvent ratios were at 2:1 acetone:methanol for drug containing specimens (Table 8). Those specimens not containing drug used pure acetone solvents in the coating formulation. […]
The concentration of minocycline hydrochloride and rifampin in specimen 8 was determined using direct proportions of peak area integrations and taking of […] as 100% drug control. […] The antibiotics remaining after curing was calculated as: {(Peak integration of specimen 8)/(peak integration of specimen 9)}×100%

[4] = Antibiotics remaining after curing, pentaerythritol tetrakis(3-mercaptopropionate)/PEG DM thiolene coating (EXP12-formula) with PTPO, HPLC peak integration (Example 12); format: physicochemical; settings: specimen 11 vs specimen 9, 0.4 mg/cm^2 each drug, curing time 10 mins
Experimental: All procedures were same as Example 11 except that the thiolene formula was replaced by the following formula (10 g of pentaerythritol tetrakis(3-mercaptopropionate) (from Sigma Aldrich, P #381462, lot #80896TMV) and 21.4 g of polyethylene glycol dimethacrylate (from Sigma Aldrich, P #409510, lot # MKBP0253V) (EXP12-formula). The curing time was set to 10 mins. The two specimens used in curing are shown in the following Table 11. Specimen 9 as discussed in Example 11 was used as a standard.
The top is specimen 9 and the bottom is the cured specimen 11 with drug loading.

[5] = Antibiotics remaining after curing, EXP12-formula coating with Irgacure 2959, HPLC peak integration (Example 13); format: physicochemical; settings: cured specimen with drug vs specimen 9, Irgacure 2959, UV-C chamber, curing time 10 mins
Experimental: All procedures are same as Example 12 except the PTPO is replaced by Irgacure 2959. The curing time was set to 10 mins. The UV source was Ariste UV-C chamber. […]

[6] = Drug survival during polymerization and post cure loading, BPDM/NTG-GMA methacrylate coating on DualMesh ePTFE, HPLC of methanol extracts (Example 4); format: physicochemical; settings: drugs in casting solution, theoretical 400 μg/cm^2 each drug, methanol extract
From the text: An acetone:ethanol:BPDM solution:NTG-GMA solution in 1:1:1:1 volume ratio was used to coat DualMesh Biomaterial with drugs both present during the polymerization process and loaded into the polymer network after curing had been performed. Circular 0.785 cm^2 samples of DualMesh were coated. In the version were drugs were included in the casting solution, both minocycline hydrochloride and rifampin were incorporated at levels such if no degradation were to have occurred each drug would have been loaded at a bulk surface area density of 400 μg/cm^2. The post-cure loaded version was created by coating the DualMesh with the same amount of polymer coating, and then submerging the specimen in a 5 mL methanol bath containing each drug at 10 mg/mL overnight (˜18 hours) at 4° C. After soaking in the methanol/drug solution, specimens were retrieved from the loading solution and allowed to air dry. Once dried they were passed through two rinse solutions using the following technique: forceps were used to hold specimens while contacting a minimal amount of the surface, vigorously shake the specimen in a 15 mL methanol rinse for 15 seconds, move specimen to a second 15 mL methanol bath and vigorously shake for an additional 15 seconds, and finally allow to air dry. Shaking was performed by moving the forceps back while holding the specimen submerged in the rinse. […]

[7] = Drug destruction on curing, thiolene coating with PTPO on polypropylene mesh, HPLC of methanol extracts (Example 6); format: physicochemical; settings: 0.1 wt % PTPO, halogen dental curing lamp, six coats, theoretical 0.2 mg/cm^2 each drug
Experimental: 1:1:8 weight ratio of monomer (67.22 wt % pentaerythritol tetrakis(3-mercaptopropionate), 32.73 wt % triallyl isocyanurate, and 0.05 wt % hydroquinone:tertbutyl cathetol (1:1 mixture by mole)):methanol:acetone containing minocycline hydrocholoride and rifampin at 50 mg/mL of each drug blend was made. PTPO (BASF P/N 56415733) was added at 0.1 wt %. Polymerization was induced using a halogen dental curing lamp through curing at a distance 2″ from the light guide for 10 seconds on each side of the mesh. Six coats were applied to result in a theoretical loading of 0.2 mg/cm^2 of each drug. HPLC analysis of methanol extracts indicated 72% and 69% destruction of minocycline hydrochloride and rifampin, respectively. High degradation rates may be the result of the phosphine oxide initiator, which could destroy these drugs upon activation.

Row | Compound | Remaining after curing [1] [%] | Remaining after curing [2] [%] | Remaining after curing [3] [%] | Remaining after curing [4] [%] | Remaining after curing [5] [%] | average drug survival during the polymerization process [6] [%] | destruction of drug [7] [%]
1 | CN(C)c1ccc(O)c2c1C[C@H]1C[C@H]3[C@H](N(C)C)C(O)=C(C(N)=O)C(=O)[C@@]3(O)C(O)=C1C2=O [Minocycline, minocycline hydrochloride] | 88 | 76 | 64 | 54 | 85 | – | –
2 | CO[C@H]1/C=C/O[C@@]2(C)Oc3c(C)c(O)c4c(O)c(c(/C=N/N5CCN(C)CC5)c(O)c4c3C2=O)NC(=O)/C(C)=C\C=C\[C@H](C)[C@H](O)[C@@H](C)[C@@H](O)[C@@H](C)[C@H](OC(C)=O)[C@@H]1C [Rifampin, rifampin] | 87 | 97 | 61 | 58 | 85 | 79 | 69
